Where two headings read alike, the source gives them in different places.
Tests used:
Friend leukemia virus [1] = assay: Test 14: viro-induced Friend leukemia, compound 21 (Tables Xa, Xb); format: in vivo, mouse; set-up: MST: unit not given beside the values; conditions: for life span: Tables Xa and II
Procedure: Test 14: viro-induced leukemia: Friend leukemia
A- As in test 2 hereinabove, the Friend leukemia virus inoculum was obtained from leukemia spleen and diluted to contain 100 SD50 /0.2 ml (SD50 =spleen enlarging dose 50 percent). The product to be tested was compound 21 (obtained according to example 7). It was given by I.P. route as a single injection 1 day after virus inoculation. […]
B. The proceeding of test 2 was repeated by using the compound 21 i.e. 1-[(γ-diethylaminopropyl)amino]-5-methyl-dipyrido[4,3-b][3,4-f]indole obtained according to example 7.
This test was carried out with a single dose of compound 21 (20 mg/kg) and with various virus doses.

[2] = system: tumoral strain derived from the murine leukemia due to the C. FRIEND virus; assay: Test 7: antitumoral activity in vitro on Friend leukemia tumoral strain; format: cell-based; conditions: HUM = 1
Procedure: Test 7: Study of the antitumoral activity in vitro
This activity was measured on a tumoral strain derived from the murine leukemia due to the C. FRIEND virus.
The tumoral cells multiply in suspension in a "RPMI 1640" medium (Catalogue of GIBCO Bio-cult. Ltd. Washington Road, Sandyford Industrial Estate, PAISLEY PA 3 4EP, Renfrewshire, Scotland) supplemented with 20% of embryonary calf serum, penicillin and streptomycine. The duplication time of these cells is 11 hours. The growth fraction is equal to 1 or very close to 1 (all the cells are in the cycle). The cultures are sub-culturedat time t=0 at the concentration of 2.10^5 cells per ml in Falcon dishes containing 4 ml of medium. After twenty four hours, the product to be tested was added, i.e. at a moment when the cultures are in exponential phase of growth. Twenty four hours after the addition of the product, the cells are counted and the percentage of living cells determined by an exclusion test using "trypan" blue.

[3] = Test 4: toxicity on adult F1 mice, IP; conditions: in vivo
Source text: Test 4: Investigation of the toxicity
The toxic dose has been sought, on adult ([…]×DBA/2) Fl mice and on new-born mice, of the compounds of the invention by injection by the IP route. The results obtained are given hereinafter:
1- On adult F1 mice (C 57 BL 6×DBA/2)F1 (IP route)

Friend leukemia virus [4] = assay: Test 2: viro-induced Friend leukemia (Table II); format: in vivo, DBA2 mice; conditions: for mean spleen weight (range): 21 days after virus; for ILS % / Weight of the spleens on the 21st day / Mean survival time (first-last death): VFA 1/250, 5 hrs after the virus
Source text: The protective power of the compounds according to the invention have also been sought on the Friend viro-induced leukemia (J. Exp. Med. 1957-105-307-318) and it has been determined that the compounds according to the invention are antiviral and antitumoral agents in lower animals.
Test 2. Viro-induced Leukemia: Friend leukemia
The protective power of the compounds according to the invention was sought on Friend leukemia, inoculated into DBA2 mice aged from 5-6 weeks. The viral inoculum was produced from a homogenate of leukemic spleen (p/volume) diluted to 1/250 in isotonic phosphate buffer without Ca^++ nor Mg^++ (PBS), corresponding to 100 SD 50 (i.e. to the dose of virus which induces a splenomegaly in 50% of the inoculated mice).
The virus was injected by the IP route and in a volume of 0.2 ml. The product to be tested was injected 5 hours after the virus or 1 day after the virus at the dose indicated in a volume of 0.1 ml (IP route). Each group of twenty control mice received the virus and a placebo or the product to be tested, 10 mice were sacrified on the 21st day, and their spleen removed and weighed. The mice were considered as leukemic when the weight of their spleen exceed 200 mg. For the 10 mice, the life span of the animals was determined.

L 1210 leukemia [5] = assay: Test 12: single vs fractioned dose, L 1210 leukemic mice (Table IX); format: in vivo, mouse; set-up: MTS: unit not given beside the values
Lewis carcinoma (3LL) = assay: Test 13: Lewis carcinoma, antimetastasic effect; format: in vivo, BDF1 mice; conditions: for MST: controls 25
Procedure: "carcinome pulmonaire de Lewis" (3LL), K. SUGIURA and C. C. STOCK," Cancer Res. 1955 15 38-51.
In this test, cells (10^6 cells) removed from a tumour-carrying mouse were injected into mice(BDF1) by the IM route. The mice developed, 10 to 15 days after the inoculation, a tumour at the spot where the injection was made. On the other hand, these cells made metastasis in the lung, forming colonies on the pulmonary surface. The antitumoral and antimetastasic effect of a product may therefore be judged on mice thus treated.
Investigation of the antimetastasic effect of the compounds of examples 7 and 8 of the invention
10^6 cells taken from a tumour-carrying mouse were injected by the IM route (left-band paw) into groups of 10 mice and the compounds to be tested were inoculated by the IP route on day J+5 by single or fractioned injection. The mean survival time (MST) and the increased life span (ILS %) were determined.

L 1210 leukemia [6] = assay: Test 11: L 1210 leukemic mice, examples 7 and 8 (Table VIII); format: in vivo, mouse; set-up: MTS: unit not given beside the values; conditions: J+1
Procedure: This test was carried out with 10^3, 10^4 and 10^5 leukemic cells on day J. This test was also carried out with the compound of example 7, i.e. 1-[(γ-diethylaminopropyl)amino]-5-methyl-dipyrido [4,3-b][3,4-f] indole (compound 21).

[7] = 10^4 cells, 0.2 mg/mouse single at J+3
[8] = 10^4 cells, 4 × 0.05 mg/mouse at J+3+4+5+6
[9] = 10^5 cells, 0.2 mg/mouse single at J+3
[10] = 10^5 cells, 4 × 0.05 mg/mouse at J+3+4+5+6
[11] = 4 injections J+5+6+10+11, 2.5 mg/kg each
[12] = Table Xa, 5 mg/kg, 1 day after virus
[13] = Table Xb, 20 mg/kg J+1, virus 1/500 (1000 SD50)
[14] = Table Xb, 20 mg/kg J+1, virus 1/1000
[15] = Table Xb, 20 mg/kg J+1, virus 1/2000 (250 SD50)

For `Cc1c2ccncc2c(C)c2c1[nH]c1ccncc12` [Example 1, 5,11-dimethyl dipyrido [4,3-b][3,4-f] indole], the life span (Friend leukemia virus [1]) was “significant increase of the life span”, the “Activity (ratio of the LD50 of HUM to the LD50 of the product tested)” value [2] was 3 and the mortality ([3]; mouse, ip, 20 mg/kg) was 16.7%. The mortality ([3]; mouse, ip, 40 mg/kg) was 12.5%, the mortality ([3]; mouse, ip, 80 mg/kg) was 83.3% and the “mean spleen weight (range)” value (Friend leukemia virus [4]; 25 mg/kg) was 1,803 (718-2,635) mg. For the same compound, the “mean spleen weight (range)” value (Friend leukemia virus [4]; 50 mg/kg) was 960 (373-1,230) mg, the ILS % (Friend leukemia virus [4]; 0.1 mg) was 59.5% and the “Weight of the spleens on the 21st day” value (Friend leukemia virus [4]; 0.1 mg) was 2013 mg. The “Mean survival time (first-last death)” value (Friend leukemia virus [4]; 0.1 mg, IP) was 47.6 (26-78) Days, the ILS % (Friend leukemia virus [4]; 0.5 mg) was 14.6% and the “Mean survival time (first-last death)” value (Friend leukemia virus [4]; 0.5 mg) was 34.2 (22.54) Days. The “Weight of the spleens on the 21st day” value (Friend leukemia virus [4]; 0.5 mg) was 1803 mg, the ILS % (Friend leukemia virus [4]; 1 mg) was 39.7% and the “Mean survival time (first-last death)” value (Friend leukemia virus [4]; 1 mg) was 41.7 (14-81) Days. For the same compound, the “Weight of the spleens on the 21st day” value (Friend leukemia virus [4]; 1 mg) was 959,6 mg.

Compound `CCN(CC)CCCNc1nccc2c(C)c3[nH]c4ccncc4c3cc12` [Example 7, 1-(γ-diethylaminopropyl)amino-5-methyl-dipyrido-[4,3-b][3,4-f] indole] has an ILS % (L 1210 leukemia [5]; [7]) of 19.32%, an MTS (L 1210 leukemia [5]; [7]) of 14.2 and a Surviving mice (L 1210 leukemia [5]; [7]) of 1. It also gave an ILS % (L 1210 leukemia [5]; [8]) of 21%, an MTS (L 1210 leukemia [5]; [8]) of 14.4 and a Surviving mice (L 1210 leukemia [5]; [8]) of 0. The ILS % (L 1210 leukemia [5]; [9]) was 36.35%, the MTS (L 1210 leukemia [5]; [9]) was 14.18 and the ILS % (L 1210 leukemia [5]; [10]) was 28.85%. For the same compound, the MTS (L 1210 leukemia [5]; [10]) was 13.4, the “antitumoral activity, single vs fractioned dose” value (L 1210 leukemia [5]; same dose single or on 4 occasions) was “a single dose has greater antitumoral activity than the same dose injected on 4 occasions” and the ILS % (Lewis carcinoma (3LL); 1 injection J+5, 10 mg/kg) was 30.8%. The MST (Lewis carcinoma (3LL); 1 injection J+5, 10 mg/kg) was 32.7, the ILS % (Lewis carcinoma (3LL); [11]) was 9.6% and the MST (Lewis carcinoma (3LL); [11]) was 27.4. The “protective action concerning metastasic pulmonary invasion of the lung” value (Lewis carcinoma (3LL); IP from J+5) was “give a protective action”, the pulmonary metastases counted (Lewis carcinoma (3LL); one mouse sacrificed day J+22, one injection J+5, non-treated mouse 77) was 35 and the ILS % (L 1210 leukemia [6]; 10^3 cells, 0.1 mg/mouse) was 15.4%. The MTS (L 1210 leukemia [6]; 10^3 cells, 0.1 mg/mouse) was 15, the “Number of surviving mice” value (L 1210 leukemia [6]; 10^3 cells, 0.1 mg/mouse) was 4 and the ILS % (L 1210 leukemia [6]; 10^3 cells, 0.2 mg/mouse) was 25.4%. For the same compound, the MTS (L 1210 leukemia [6]; 10^3 cells, 0.2 mg/mouse) was 16.3, the “Number of surviving mice” value (L 1210 leukemia [6]; 10^3 cells, 0.2 mg/mouse) was 7 and the ILS % (L 1210 leukemia [6]; 10^4 cells, 0.1 mg/mouse) was 65.1%. The MTS (L 1210 leukemia [6]; 10^4 cells, 0.1 mg/mouse) was 18, the “Number of surviving mice” value (L 1210 leukemia [6]; 10^4 cells, 0.1 mg/mouse) was 1 and the ILS % (Friend leukemia virus [1]; [12]) was 39%. For the same compound, the MST (Friend leukemia virus [1]; [12]) was 44.5, the Range of death (Friend leukemia virus [1]; [12]) was 27 to 52 days and the ILS % (Friend leukemia virus [1]; [13]) was 40%. For the same compound, the MST (Friend leukemia virus [1]; [13]) was 40.7, the Range of death (Friend leukemia virus [1]; [13]) was 31-51 and the “Survivors 4 months after inoculation” value (Friend leukemia virus [1]; [13]) was 0. For the same compound, the ILS % (Friend leukemia virus [1]; [14]) was 82.7%, the MST (Friend leukemia virus [1]; [14]) was 44.4 and the Range of death (Friend leukemia virus [1]; [14]) was 30-54. For the same compound, the “Survivors 4 months after inoculation” value (Friend leukemia virus [1]; [14]) was 0, the ILS % (Friend leukemia virus [1]; [15]) was 64% and the MST (Friend leukemia virus [1]; [15]) was 55.4. The Range of death (Friend leukemia virus [1]; [15]) was 50-82, the “Survivors 4 months after inoculation” value (Friend leukemia virus [1]; [15]) was 2 and the life span (Friend leukemia virus [1]) was “significant increase of the life span”. The “Activity (ratio of the LD50 of HUM to the LD50 of the product tested)” value [2] was 20, the mortality ([3]; 0.3 mg/mouse (15 mg/kg), IP, read-out: dead mice (converted)) was 0% and the mortality ([3]; 0.5 mg/mouse (25 mg/kg), IP, read-out: dead mice (converted)) was 0%. It also gave a mortality ([3]; 0.6 mg/mouse (30 mg/kg), IP, read-out: dead mice (converted)) of 50%, a mortality ([3]; 1 mg/mouse (50 mg/kg), IP, read-out: dead mice (converted)) of 33.3% and an LD50 ([3]; mouse, adult F1 mice, IP) of 30 mg/kg.

Reference: patent US4444776A, “Dipyrido (4,3-B) (3,4-F) indoles, process for obtaining them, therapeutical use and pharmaceutical compositions” (priority 1977, dated 1984)
